Target: DNA (cytosine-5)-methyltransferase 1 (Homo sapiens, UniProt P26358)
Experiment: DNMT1 Inhibition Assay
Procedure: The DNMT1 assays were carried to determine the IC50 with transition state analogs. The reaction (100 μL) containing 50 mM Tris-HCl pH 8.0, 100 mM KCl, 50 ug/mL BSA, 2 mM DTT, 1 μM freshly prepared [Me-3H]-SAM, 1 μM 26 bp hemimethylated DNA substrate and varying concentrations of each inhibitor ([…]), incubated at 37° C. with 100 nM DNMT1. The reaction fractions (50 μL) were taken at 2 hours. The methylated DNA was purified by using Micro Bio-spin P-30 columns (Bio-Rad). Purified samples were mixed with 10 mL of scintillation liquid (PerkinElmer), and counted for radioactivity in a Tricarb 2910 TR scintillation counter (PerkinElmer). The values obtained in the absence of DNMT1 in the reaction were used as controls. The assay data were analyzed using GraphPad Prism for IC50 calculations.

DNA (cytosine-5)-methyltransferase 1, sequence (P26358 whole entry): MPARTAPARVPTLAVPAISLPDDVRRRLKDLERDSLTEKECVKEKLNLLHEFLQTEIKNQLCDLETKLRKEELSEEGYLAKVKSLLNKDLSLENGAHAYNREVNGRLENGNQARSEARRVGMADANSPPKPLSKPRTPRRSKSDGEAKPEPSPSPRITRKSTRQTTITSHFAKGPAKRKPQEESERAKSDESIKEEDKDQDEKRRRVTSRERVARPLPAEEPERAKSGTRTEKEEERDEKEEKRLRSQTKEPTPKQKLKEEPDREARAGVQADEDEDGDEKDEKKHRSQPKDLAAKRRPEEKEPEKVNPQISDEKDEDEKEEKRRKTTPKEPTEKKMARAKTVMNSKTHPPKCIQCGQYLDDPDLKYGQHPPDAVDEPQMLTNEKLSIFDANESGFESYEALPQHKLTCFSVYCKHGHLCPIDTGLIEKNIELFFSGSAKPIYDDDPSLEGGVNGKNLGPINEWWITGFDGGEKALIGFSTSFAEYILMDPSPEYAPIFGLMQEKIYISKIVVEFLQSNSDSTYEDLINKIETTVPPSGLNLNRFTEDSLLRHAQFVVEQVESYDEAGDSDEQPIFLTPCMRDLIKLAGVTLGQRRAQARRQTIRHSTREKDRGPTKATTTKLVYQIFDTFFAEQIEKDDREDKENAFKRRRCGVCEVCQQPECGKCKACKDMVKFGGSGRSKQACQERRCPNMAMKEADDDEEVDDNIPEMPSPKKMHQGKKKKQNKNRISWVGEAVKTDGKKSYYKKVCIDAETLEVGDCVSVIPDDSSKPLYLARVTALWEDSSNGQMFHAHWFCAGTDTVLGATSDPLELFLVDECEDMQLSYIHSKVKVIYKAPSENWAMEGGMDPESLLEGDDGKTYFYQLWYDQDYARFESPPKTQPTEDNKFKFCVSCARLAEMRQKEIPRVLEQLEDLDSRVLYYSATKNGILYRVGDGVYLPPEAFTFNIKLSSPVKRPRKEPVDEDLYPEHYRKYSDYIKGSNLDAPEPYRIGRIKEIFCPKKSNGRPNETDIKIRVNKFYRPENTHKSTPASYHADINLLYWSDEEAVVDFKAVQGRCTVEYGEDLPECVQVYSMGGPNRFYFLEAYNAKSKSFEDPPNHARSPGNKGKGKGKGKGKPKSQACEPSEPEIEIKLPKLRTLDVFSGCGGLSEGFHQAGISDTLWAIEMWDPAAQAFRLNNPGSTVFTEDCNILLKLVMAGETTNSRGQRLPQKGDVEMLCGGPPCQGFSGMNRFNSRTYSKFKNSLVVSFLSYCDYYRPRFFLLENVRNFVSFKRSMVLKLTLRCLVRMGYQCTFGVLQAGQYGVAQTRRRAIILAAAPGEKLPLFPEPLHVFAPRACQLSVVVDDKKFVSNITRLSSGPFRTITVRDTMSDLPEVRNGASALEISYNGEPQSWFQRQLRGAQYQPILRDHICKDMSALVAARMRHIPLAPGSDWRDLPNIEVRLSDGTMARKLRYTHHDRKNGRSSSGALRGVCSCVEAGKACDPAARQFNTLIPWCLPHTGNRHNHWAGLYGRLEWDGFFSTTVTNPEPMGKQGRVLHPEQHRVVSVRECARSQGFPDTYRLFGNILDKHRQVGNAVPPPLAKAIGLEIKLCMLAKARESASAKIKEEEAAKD

Row | IC50 | SMILES
1 | 1.1 µM | Nc1nc(=O)n([C@H]2C[C@H](O)[C@@H](CO)O2)cc1CNC[C@H]1O[C@@H](n2cnc3c(N)ncnc32)[C@H](O)[C@@H]1O [US11518779, Compound 10]
2 | 3.6 µM | Nc1nc(=O)n([C@H]2C[C@H](O)[C@@H](CO)O2)cc1CSCCC[C@H]1O[C@@H](n2cnc3c(N)ncnc32)[C@H](O)[C@@H]1O [US11518779, Compound 21]
